Results on 8 compounds are retold here after ChEMBL document CHEMBL3886737, “5-chloro-2-difluoromethoxyphenyl pyrazolopyrimidine compounds, compositions and methods of use thereof” (2016).

Assay [1] deals with Tyrosine-protein kinase JAK1 (Homo sapiens, UniProt P23458). As to the kind of experiment: (§1) JAK Enzyme Assay: The activity of the isolated recombinant JAK1 and JAK2 kinase domain was measured by monitoring phosphorylation of a peptide derived from JAK3 ([…] fluorescently labeled on the N-terminus with 5-carboxyfluorescein) using the Caliper LabChip® technology (Caliper Life Sciences, Hopkinton, Mass.). […] Reactions were incubated at 22° C. in 384-well polypropylene microtiter plates for 30 minutes and then stopped by addition of 25 μL of an EDTA containing solution (100 mM HEPES buffer (pH 7.2), 0.015% Brij-35, 150 mM EDTA), resulting in a final EDTA concentration of 50 mM. After termination of the kinase reaction, the proportion of phosphorylated product was determined as a fraction of total peptide substrate using the Caliper LabChip® 3000 according to the manufacturer's specifications.
Sequence of Tyrosine-protein kinase JAK1 (P23458 whole entry, the tested form may be a part): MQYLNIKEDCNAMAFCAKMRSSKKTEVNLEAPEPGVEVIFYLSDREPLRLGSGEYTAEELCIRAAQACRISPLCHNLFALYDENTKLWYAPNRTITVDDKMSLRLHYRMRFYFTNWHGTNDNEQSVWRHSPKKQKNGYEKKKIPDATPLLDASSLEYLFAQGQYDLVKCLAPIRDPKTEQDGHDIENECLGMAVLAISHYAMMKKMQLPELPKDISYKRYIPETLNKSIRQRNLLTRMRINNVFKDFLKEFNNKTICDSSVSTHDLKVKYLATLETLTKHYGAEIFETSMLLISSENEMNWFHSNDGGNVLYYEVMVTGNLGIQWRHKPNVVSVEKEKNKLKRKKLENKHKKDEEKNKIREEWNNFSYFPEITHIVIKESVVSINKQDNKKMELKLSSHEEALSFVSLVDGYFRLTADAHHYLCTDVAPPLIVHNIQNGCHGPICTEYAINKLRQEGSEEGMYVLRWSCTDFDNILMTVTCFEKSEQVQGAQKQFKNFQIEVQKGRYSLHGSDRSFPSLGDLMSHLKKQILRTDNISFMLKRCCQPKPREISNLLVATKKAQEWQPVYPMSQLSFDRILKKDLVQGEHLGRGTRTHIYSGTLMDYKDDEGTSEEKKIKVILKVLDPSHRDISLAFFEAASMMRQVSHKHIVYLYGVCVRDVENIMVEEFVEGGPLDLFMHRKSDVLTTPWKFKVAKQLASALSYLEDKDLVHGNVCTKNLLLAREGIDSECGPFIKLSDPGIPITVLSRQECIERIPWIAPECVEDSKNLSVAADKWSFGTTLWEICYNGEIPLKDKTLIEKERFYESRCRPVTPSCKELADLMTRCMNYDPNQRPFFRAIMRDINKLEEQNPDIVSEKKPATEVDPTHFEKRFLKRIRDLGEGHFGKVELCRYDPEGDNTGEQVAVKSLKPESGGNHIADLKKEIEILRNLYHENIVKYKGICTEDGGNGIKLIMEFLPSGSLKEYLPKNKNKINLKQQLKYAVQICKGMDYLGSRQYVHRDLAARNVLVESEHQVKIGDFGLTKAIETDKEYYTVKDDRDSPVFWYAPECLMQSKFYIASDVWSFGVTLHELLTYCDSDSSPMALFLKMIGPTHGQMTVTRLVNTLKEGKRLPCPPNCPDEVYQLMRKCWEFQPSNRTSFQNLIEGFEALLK

Assay [2] has as its target Tyrosine-protein kinase JAK2 (Homo sapiens, UniProt O60674). The description is as §1.

Sequence of Tyrosine-protein kinase JAK2 (O60674 whole entry): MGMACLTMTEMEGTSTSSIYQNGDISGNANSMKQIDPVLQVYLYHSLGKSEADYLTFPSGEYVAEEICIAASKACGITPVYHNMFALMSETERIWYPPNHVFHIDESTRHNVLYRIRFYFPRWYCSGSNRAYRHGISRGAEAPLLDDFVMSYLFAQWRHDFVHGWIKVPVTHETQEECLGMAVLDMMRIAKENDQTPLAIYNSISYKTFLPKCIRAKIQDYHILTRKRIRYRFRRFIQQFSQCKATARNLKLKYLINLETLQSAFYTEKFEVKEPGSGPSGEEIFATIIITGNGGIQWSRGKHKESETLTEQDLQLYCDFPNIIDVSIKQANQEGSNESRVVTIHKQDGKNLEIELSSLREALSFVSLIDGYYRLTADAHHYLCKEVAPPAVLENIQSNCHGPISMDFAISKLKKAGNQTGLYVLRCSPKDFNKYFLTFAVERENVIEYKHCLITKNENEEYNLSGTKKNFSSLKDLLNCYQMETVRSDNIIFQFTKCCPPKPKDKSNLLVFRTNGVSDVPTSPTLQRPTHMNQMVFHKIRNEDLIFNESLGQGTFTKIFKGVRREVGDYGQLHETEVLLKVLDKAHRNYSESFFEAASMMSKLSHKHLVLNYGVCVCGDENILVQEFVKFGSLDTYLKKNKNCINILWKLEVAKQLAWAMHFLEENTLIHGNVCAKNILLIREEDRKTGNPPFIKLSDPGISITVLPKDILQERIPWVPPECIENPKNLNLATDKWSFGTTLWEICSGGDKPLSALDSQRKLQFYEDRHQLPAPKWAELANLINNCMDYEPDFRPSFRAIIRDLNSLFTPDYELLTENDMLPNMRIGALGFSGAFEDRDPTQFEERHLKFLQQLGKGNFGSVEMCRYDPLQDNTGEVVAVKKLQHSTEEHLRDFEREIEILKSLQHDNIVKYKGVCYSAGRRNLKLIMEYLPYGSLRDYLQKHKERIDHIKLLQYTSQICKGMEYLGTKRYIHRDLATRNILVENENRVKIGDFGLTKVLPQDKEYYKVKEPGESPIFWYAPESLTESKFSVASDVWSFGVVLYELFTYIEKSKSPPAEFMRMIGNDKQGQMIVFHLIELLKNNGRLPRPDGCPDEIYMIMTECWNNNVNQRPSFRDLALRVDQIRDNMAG

As usually defined, the Ki is the dissociation constant of the complex between target and ligand, obtained from inhibition or displacement. As to `CN(C)C1CCN(C(=O)C2CCN(c3nc(-c4cc(Cl)ccc4OC(F)F)c(NC(=O)c4cnn5cccnc45)s3)CC2)CC1`, the results for the inhibitory constant (Ki) in assay [1] and in assay [2] were 890 pM and 860 pM, respectively.

Take `O=C(Nc1cn(CC(=O)N2CCC(N3CC[S+]([O-])CC3)CC2)nc1-c1cc(Cl)ccc1OC(F)F)c1cnn2cccnc12`: the inhibition constant Ki in assay [1] was 230 pM; in assay [2], 630 pM.

Regarding `Nc1nn2cccnc2c1C(=O)Nc1cn(CC(=O)N2CC[C@@H](O)C2)nc1-c1cc(Cl)ccc1OC(F)F`, the Ki in assay [2] is 130 pM.

On to `C[N+](C)(CCCc1ccccc1)C1CCN(C(=O)Cn2cc(NC(=O)c3cnn4cccnc34)c(-c3cc(Cl)ccc3OC(F)F)n2)CC1`, for which the figures for the Ki in assay [1] and in assay [2] were 1210 pM and 2900 pM, respectively.

For `N#C[C@H]1CCCN(C2CCN(C(=O)Cn3cc(NC(=O)c4cnn5cccnc45)c(-c4cc(Cl)ccc4OC(F)F)n3)CC2)C1`, the Ki in assay [1] amounted to 300 pM; in assay [2] it was 760 pM.

Take `CN1CCC(n2cc(NC(=O)c3c(N)nn4cccnc34)c(-c3cc(Cl)ccc3OC(F)F)n2)CC1`: the inhibition constant Ki in assay [1] worked out at 760 pM.

Regarding `CCOC(=O)CCN1CCN(C(=O)Cn2cc(NC(=O)c3cnn4cccnc34)c(-c3cc(Cl)ccc3OC(F)F)n2)CC1`, in assay [1], the inhibition constant Ki is 490 pM.

In the case of `CN(CC1(C#N)CC1)C1CCN(C(=O)Cn2cc(NC(=O)c3cnn4cccnc34)c(-c3cc(Cl)ccc3OC(F)F)n2)CC1`, in assay [2], the inhibition constant (Ki) was 640 pM.
